Assay: Example 2: phase 3 trial, enavogliflozin 0.3 mg vs dapagliflozin 10 mg once a day for 24 weeks added to metformin in patients with type 2 diabetes (same efficacy, exploratory and safety endpoints)
Assay type: in vivo, human
Conditions: for Non-inferiority (UCI < 0.35%): HbA1c change at week 24, vs dapagliflozin
Experimental: Subjects who met the inclusion/exclusion criteria were administered a placebo of the clinical trial drug under single-blind (subject blinding) conditions during a 2-week run-in period while continuing to receive metformin. […] The randomized subjects were administered two tablets of the clinical trial drug for each administration group once a day, and then visited the institution at weeks 6, 12, 18, and 24 during the 24-week administration period to conduct efficacy and safety evaluations.
• 1. Change in HbA1c at week 24 after administration of clinical trial drug compared to Visit 2 (randomization)
• 1. Change in HbA1c at each time point of weeks 6, 12, and 18 after administration of clinical trial drug compared to Visit 2 (randomization) • 2. Change in FPG at each time point of weeks 6, 12, 18, and 24 after administration of clinical trial drug compared to Visit 2 (randomization) • 3. Proportion of subjects achieving HbA1c<7% at each time point of weeks 6, 12, 18, and 24 after administration of clinical trial drug • 4. Proportion of subjects achieving HbA1c<6.5% at each time point of weeks 6, 12, 18, and 24 after administration of clinical trial drug • 5. Proportion of subjects achieving therapeutic response (HbA1c change (HbA1c at Visit 2-HbA1c at each evaluation time point)>0.5% or HbA1c<7% at each evaluation time point compared to Visit 2 (randomization)) at each time point of weeks 6, 12, 18 and 24 after administration of clinical trial drug
• 1. Change in fasting c-peptide at each time point of weeks 6, 12, 18, and 24 after administration of clinical trial drug compared to Visit 2 (randomization) • 2. Change in body weight at each time point of weeks 6, 12, 18, and 24 after administration of clinical trial drug compared to Visit 2 (randomization) • 3. Change in fasting lipid concentration (total cholesterol, LDL-C, HDL-C, and triglycerides) at each time point of weeks 6, 12, 18, and 24 after administration of clinical trial drug compared to Visit 2 (randomization) • 4. Changes in systolic or diastolic blood pressure at each time point of weeks 6, 12, 18, and 24 after administration of clinical trial drug compared to Visit 2 (randomization) • 5. Changes in β-cell function and insulin resistance measured by HOMA-β and HOMA-IR at each time point of weeks 6, 12, 18, and 24 after administration of clinical trial drug compared to Visit 2 (randomization) • 6. Changes in renal function-related indicators (UACR, UGCR) measured by UACR at each time point of weeks 6, 12, 18, and 24 after administration of clinical trial drug compared to Visit 2 (randomization) • 7. Changes in obesity-related indicators (adiponectin, leptin) at each time point of weeks 6, 12, 18, and 24 after administration of clinical trial drug compared to Visit 2 (randomization)

[1] = Baseline, modified per-protocol set 1, enavogliflozin 0.3 mg, dapagliflozin 10 mg
[2] = Baseline, per-protocol set, enavogliflozin 0.3 mg, dapagliflozin 10 mg
[3] = Week 6, PPS, enavogliflozin minus dapagliflozin

Compound: OC[C@H]1O[C@@H](c2cc(Cc3ccc(C4CC4)cc3)c(Cl)c3c2CCO3)[C@H](O)[C@@H](O)[C@@H]1O [Enavogliflozin, (2S,3R,4R,5S,6R)-2-(7-chloro-6 (4-cyclopropylbenzyl)-2,3-dihydrobenzofuran-4-yl)-6-(hydroxymethyl)tetrahydro-2H-pyran-3,4,5-triol]
- Incidence of serious adverse drug reactions (24 weeks): 1 case
- Incidence of adverse events or serious adverse events between the test group and the control (24 weeks, vs dapagliflozin): no statistically significant differences
- Adiponectin, Mean (SD) (Baseline, PPS): 6.96 µg/mL
- Adiponectin, Median (Baseline, PPS): 5.99 µg/mL
- HOMA-IR, Mean (SD) (Baseline, PPS): 3.45
- HOMA-IR, Median (Baseline, PPS): 2.67
- HOMA-β, Mean (SD) (Baseline, PPS): 45.53
- HOMA-β, Median (Baseline, PPS): 35.00
- Leptin, Mean (SD) (Baseline, PPS): 12.21 ng/mL
- Leptin, Median (Baseline, PPS): 8.00 ng/mL
- UACR, Mean (SD) (Baseline, PPS): 38190 mg/kg
- UACR, Median (Baseline, PPS): 10.10 g/kg
- UGCR, Mean (SD) (Baseline, PPS): 1.54 mg/mg
- UGCR, Median (Baseline, PPS): 0.14 mg/mg
- HDL-C, Mean (SD) (Baseline, mPPS1): 50.94(10.85) mg/dL
- HDL-C, Median (Baseline, mPPS1): 50.00 mg/dL
- LDL-C, Mean (SD) (Baseline, mPPS1): 86.52(30.53) mg/dL
- LDL-C, Median (Baseline, mPPS1): 83.00 mg/dL
- Triglycerides, Mean (SD) (Baseline, mPPS1): 122.10(85.91) mg/dL
- Triglycerides, Median (Baseline, mPPS1): 101.00 mg/dL
- Diastolic blood pressure, Mean (SD) (Baseline, mPPS2): 77.04 mmHg
- Diastolic blood pressure, Median (Baseline, mPPS2): 77.00 mmHg
- Systolic blood pressure, Mean (SD) (Baseline, mPPS2): 129.72(13.64) mmHg
- Systolic blood pressure, Median (Baseline, mPPS2): 130.00 mmHg
- fasting Total cholesterol, Mean (SD) [1]: 151.43(32.91) mg/dL
- fasting Total cholesterol, Median [1]: 150.00 mg/dL
- FPG, Mean (SD) [2]: 145.35 mg/dL
- FPG, Median [2]: 147.00 mg/dL
- HbA1c, Mean (SD) [2]: 7.75%
- HbA1c, Median [2]: 7.49%
- body weight, Mean (SD) [2]: 70.17(11.06) kg
- body weight, Median [2]: 67.40 kg
- fasting c-peptide, Mean (SD) [2]: 0.72(0.29) ng/mL
- fasting c-peptide, Median [2]: 0.66 ng/mL
- Non-inferiority (UCI < 0.35%): Yes
- Non-inferiority (UCI < 0.35%) (listed as enavogliflozin): not inferior
- Adiponectin change from baseline, ANCOVA LS mean (SE) (Week 6, PPS): 0.92 µg/mL
- Adiponectin change from baseline, Mean (SD) (Week 6, PPS): 0.84 µg/mL
- Adiponectin change from baseline, Median (Week 6, PPS): 0.58 µg/mL
- Adiponectin, Mean (SD) (Week 6, PPS): 7.8 µg/mL
- Adiponectin, Median (Week 6, PPS): 6.87 µg/mL
- HOMA-IR change from baseline, ANCOVA LS mean (SE) (Week 6, PPS): −1.47
- HOMA-IR change from baseline, Mean (SD) (Week 6, PPS): −1.35
- HOMA-IR change from baseline, Median (Week 6, PPS): −0.91
- HOMA-IR, Mean (SD) (Week 6, PPS): 2.10
- HOMA-IR, Median (Week 6, PPS): 1.72
- HOMA-β change from baseline, ANCOVA LS mean (SE) (Week 6, PPS): 7.22
- HOMA-β change from baseline, Mean (SD) (Week 6, PPS): 5.87
- HOMA-β change from baseline, Median (Week 6, PPS): 8.10
- HOMA-β, Mean (SD) (Week 6, PPS): 51.39
- HOMA-β, Median (Week 6, PPS): 43.00
- Leptin change from baseline, ANCOVA LS mean (SE) (Week 6, PPS): -2.43 ng/mL
- Leptin change from baseline, Mean (SD) (Week 6, PPS): -2.54 ng/mL
- Leptin change from baseline, Median (Week 6, PPS): -1.36 ng/mL
- Leptin, Mean (SD) (Week 6, PPS): 9.66 ng/mL
- Leptin, Median (Week 6, PPS): 5.99 ng/mL
- UACR change from baseline, ANCOVA LS mean (SE) (Week 6, PPS): -12.75 g/kg
- UACR change from baseline, Mean (SD) (Week 6, PPS): -11440 mg/kg
- UACR change from baseline, Median (Week 6, PPS): 0.00 g/kg
- UACR, Mean (SD) (Week 6, PPS): 26760 mg/kg
- UACR, Median (Week 6, PPS): 11.40 g/kg
- UGCR change from baseline, ANCOVA LS mean (SE) (Week 6, PPS): 65.72 mg/mg
- UGCR change from baseline, Mean (SD) (Week 6, PPS): 63.13 mg/mg
- UGCR change from baseline, Median (Week 6, PPS): 57.91 mg/mg
- UGCR, Mean (SD) (Week 6, PPS): 64.66 mg/mg
- UGCR, Median (Week 6, PPS): 58.45 mg/mg
- HOMA-IR change from baseline, LS mean difference [3]: −0.16
- HOMA-β change from baseline, LS mean difference [3]: 9.01
- UACR change from baseline, LS mean difference [3]: -20.88 g/kg
